According to ChEMBL document CHEMBL1201862, “PubChem BioAssay data set” (2004):
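Growth conditions: 96-well plates. Treatment: test compound, 48 hours, 5 concentrations. Analysis: linear interpolation between bracketing concentrations; unreached endpoints set to highest concentration. GI50 marks 50% less growth.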 Activity calls are given as the source filed them. Cut-off read from the data, not from the text of the source: active = GI50 up to about 1.1 µM and inactive = higher.

Key:
Assay in all cases: NCI tumour cell line growth inhibition, 48 h
OVCAR-8 = test system: OVCAR-8
SF-295 = test system: SF-295
SK-MEL-28 = test system: SK-MEL-28
DU-145 = test system: DU-145
IGROV-1 = test system: IGROV-1
MDA-MB-231 = test system: MDA-MB-231
MOLT-4 = test system: MOLT-4
HCT-15 = test system: HCT-15
A498 = test system: A498
OVCAR-4 = test system: OVCAR-4
KM12 = test system: KM12
LOX IMVI = test system: LOX IMVI
K562 = test system: K562
HOP-92 = test system: HOP-92
NCI-H460 = test system: NCI-H460
OVCAR-3 = test system: OVCAR-3
UACC-62 = test system: UACC-62
786-0 = test system: 786-0
SK-MEL-5 = test system: SK-MEL-5

SMILES	GI50 (OVCAR-8)	GI50 (SF-295)	GI50 (SK-MEL-28)	GI50 (DU-145)	GI50 (IGROV-1)	GI50 (MDA-MB-231)	GI50 (MOLT-4)	GI50 (HCT-15)	GI50 (A498)	GI50 (OVCAR-4)	GI50 (KM12)	GI50 (LOX IMVI)	GI50 (K562)	GI50 (HOP-92)	GI50 (NCI-H460)	GI50 (OVCAR-3)	GI50 (UACC-62)	GI50 (786-0)	GI50 (SK-MEL-5)
CC(=O)Nc1ccc(S(=O)(=O)N=S(C)C)cc1	> 100 µM (inactive)	> 100 µM (inactive)	> 100 µM (inactive)	> 100 µM (inactive)	> 100 µM (inactive)	> 100 µM (inactive)	> 100 µM (inactive)	> 100 µM	> 100 µM (inactive)	> 100 µM (inactive)	> 100 µM (inactive)	> 100 µM (inactive)	> 100 µM (inactive)	> 100 µM (inactive)	> 100 µM (inactive)	> 100 µM (inactive)	> 100 µM (inactive)	> 100 µM (inactive)	–
N#CCCOc1cccc(C2(N3CCCCC3)CCCCC2)c1	> 100 µM (inactive)	> 100 µM (inactive)	> 100 µM (inactive)	> 100 µM (inactive)	> 100 µM (inactive)	> 100 µM (inactive)	> 100 µM (inactive)	> 100 µM	> 100 µM (inactive)	> 100 µM (inactive)	> 100 µM (inactive)	> 100 µM (inactive)	> 100 µM (inactive)	–	–	> 100 µM (inactive)	> 100 µM (inactive)	> 100 µM (inactive)	> 100 µM (inactive)
CC1CC/C(=C\c2ccc(F)cc2)C2=C1C(c1ccc(F)cc1)n1c(s/c(=C\c3ccc(Cl)cc3)c1=O)=N2 (configuration not stated)	> 100 µM (inactive)	–	> 100 µM (inactive)	> 100 µM (inactive)	> 100 µM (inactive)	> 100 µM (inactive)	> 100 µM (inactive)	> 100 µM	> 100 µM (inactive)	> 100 µM (inactive)	> 100 µM (inactive)	> 100 µM (inactive)	> 100 µM (inactive)	> 100 µM (inactive)	–	–	> 100 µM (inactive)	> 100 µM (inactive)	> 100 µM (inactive)
CC(=O)C1(/N=N/c2ccc(S(N)(=O)=O)cc2)CCOC1=O (configuration not stated)	> 100 µM (inactive)	> 100 µM (inactive)	> 100 µM (inactive)	> 100 µM (inactive)	> 100 µM (inactive)	> 100 µM (inactive)	–	> 100 µM	> 100 µM (inactive)	> 100 µM (inactive)	> 100 µM (inactive)	> 100 µM (inactive)	–	> 100 µM (inactive)	> 100 µM (inactive)	> 100 µM (inactive)	> 100 µM (inactive)	> 100 µM (inactive)	> 100 µM (inactive)
COc1ccc(NC(=O)C(C#N)=C(SC)SC)cc1	–	> 100 µM (inactive)	> 100 µM (inactive)	> 100 µM (inactive)	58.6 µM (inactive)	> 100 µM (inactive)	> 100 µM (inactive)	> 100 µM	> 100 µM (inactive)	> 100 µM (inactive)	–	> 100 µM (inactive)	> 100 µM (inactive)	15.8 µM (inactive)	> 100 µM (inactive)	> 100 µM (inactive)	> 100 µM (inactive)	> 100 µM (inactive)	> 100 µM (inactive)
CC1=C(C(=O)NC2CCCCC2)CC(C(=O)NC2CCCCC2)=C(C)N1	–	> 100 µM (inactive)	> 100 µM (inactive)	> 100 µM (inactive)	> 100 µM (inactive)	> 100 µM (inactive)	> 100 µM (inactive)	> 100 µM	65.9 µM (inactive)	> 100 µM (inactive)	> 100 µM (inactive)	> 100 µM (inactive)	57.4 µM (inactive)	33 µM (inactive)	> 100 µM (inactive)	> 100 µM (inactive)	> 100 µM (inactive)	> 100 µM (inactive)	> 100 µM (inactive)
Oc1ccc2ccccc2c1OCc1nnc(CCCCCCCCc2nnc(COc3c(O)ccc4ccccc34)o2)o1	–	> 100 µM (inactive)	> 100 µM (inactive)	> 100 µM (inactive)	> 100 µM (inactive)	34.8 µM (inactive)	92.3 µM (inactive)	> 100 µM	> 100 µM (inactive)	> 100 µM (inactive)	25.2 µM (inactive)	–	> 100 µM (inactive)	> 100 µM (inactive)	> 100 µM (inactive)	–	> 100 µM (inactive)	83 µM (inactive)	> 100 µM (inactive)
N#CC(C#N)=C1C(C#N)=C(N)NC12OCCO2	> 100 µM (inactive)	> 100 µM (inactive)	> 100 µM (inactive)	> 100 µM (inactive)	> 100 µM (inactive)	> 100 µM (inactive)	> 100 µM (inactive)	> 100 µM	> 100 µM (inactive)	> 100 µM (inactive)	> 100 µM (inactive)	> 100 µM (inactive)	> 100 µM (inactive)	> 100 µM (inactive)	> 100 µM (inactive)	–	> 100 µM (inactive)	> 100 µM (inactive)	> 100 µM (inactive)
C=C(C)OCOCCOC	> 100 µM (inactive)	> 100 µM (inactive)	> 100 µM (inactive)	> 100 µM (inactive)	> 100 µM (inactive)	> 100 µM (inactive)	> 100 µM (inactive)	> 100 µM	> 100 µM (inactive)	–	> 100 µM (inactive)	> 100 µM (inactive)	> 100 µM (inactive)	–	> 100 µM (inactive)	> 100 µM (inactive)	> 100 µM (inactive)	> 100 µM (inactive)	> 100 µM (inactive)
COc1cc(/N=C\N(C)C)c2ncccc2c1	51.8 µM (inactive)	93.3 µM (inactive)	> 100 µM (inactive)	> 100 µM (inactive)	33.9 µM (inactive)	35.2 µM (inactive)	35.7 µM (inactive)	38.1 µM	42.7 µM (inactive)	> 100 µM (inactive)	–	44.4 µM (inactive)	15.8 µM (inactive)	32.1 µM (inactive)	–	56.6 µM (inactive)	54.1 µM (inactive)	81.3 µM (inactive)	52.1 µM (inactive)
CCCN(CCC)C(=S)N/N=C(/C)c1ccccc1O	3.42 µM (inactive)	6.41 µM (inactive)	7.28 µM (inactive)	6.84 µM (inactive)	4.43 µM (inactive)	9.4 µM (inactive)	4.04 µM (inactive)	3.48 µM	14.3 µM (inactive)	5.96 µM (inactive)	4.98 µM (inactive)	3.46 µM (inactive)	4.06 µM (inactive)	15.9 µM (inactive)	2.51 µM (inactive)	2.51 µM (inactive)	3.19 µM (inactive)	3.32 µM (inactive)	5.81 µM (inactive)
C/C(=N\Nc1nc2ccccc2s1)c1ncccn1	< 0.016 µM (active)	0.11 µM (active)	0.179 µM (active)	0.258 µM (active)	0.0183 µM (active)	< 0.0179 µM (active)	< 0.01 µM (active)	0.0215 µM	3.13 µM (inactive)	–	0.128 µM (active)	–	< 0.0501 µM (active)	< 0.0276 µM (active)	0.04 µM (active)	< 0.0215 µM (active)	0.101 µM (active)	0.0336 µM (active)	0.03 µM (active)
CSc1c(C#N)c(N)n(-c2ccc(C)cc2)c(=O)c1C#N	> 100 µM (inactive)	–	> 100 µM (inactive)	> 100 µM (inactive)	> 100 µM (inactive)	> 100 µM (inactive)	> 100 µM (inactive)	> 100 µM	50.8 µM (inactive)	> 100 µM (inactive)	> 100 µM (inactive)	88.9 µM (inactive)	> 100 µM (inactive)	–	> 100 µM (inactive)	> 100 µM (inactive)	> 100 µM (inactive)	> 100 µM (inactive)	> 100 µM (inactive)
CC(=O)C(=CNc1c(C)n(C)n(-c2ccccc2)c1=O)C(C)=O	> 100 µM (inactive)	> 100 µM (inactive)	–	> 100 µM (inactive)	> 100 µM (inactive)	> 100 µM (inactive)	> 100 µM (inactive)	> 100 µM	> 100 µM (inactive)	> 100 µM (inactive)	> 100 µM (inactive)	> 100 µM (inactive)	> 100 µM (inactive)	> 100 µM (inactive)	–	> 100 µM (inactive)	> 100 µM (inactive)	> 100 µM (inactive)	> 100 µM (inactive)
CC(C)[Si]1(C(C)C)OCC2OC(n3ccc(=O)[nH]c3=O)C(O)(CO)C2O[Si](C(C)C)(C(C)C)O1 (configuration not stated)	15.5 µM (inactive)	15 µM (inactive)	19.3 µM (inactive)	18.3 µM (inactive)	11.6 µM (inactive)	13.6 µM (inactive)	12.3 µM (inactive)	18.4 µM	20.7 µM (inactive)	13.8 µM (inactive)	16.5 µM (inactive)	15.8 µM (inactive)	18.4 µM (inactive)	10.5 µM (inactive)	–	15.8 µM (inactive)	15.8 µM (inactive)	15.3 µM (inactive)	15.1 µM (inactive)
CN(C)CCCN1C(=O)N(CCCN(C)C)c2c3cc(O)ccc3nc3c([N+](=O)[O-])ccc1c23	15.8 µM (inactive)	34.4 µM (inactive)	43.3 µM (inactive)	27.9 µM (inactive)	4.57 µM (inactive)	11.6 µM (inactive)	–	13.1 µM	22 µM (inactive)	2.29 µM (inactive)	14.9 µM (inactive)	10.4 µM (inactive)	4.99 µM (inactive)	4.82 µM (inactive)	15.6 µM (inactive)	26.1 µM (inactive)	11.9 µM (inactive)	8.13 µM (inactive)	15.5 µM (inactive)
